Tests used:
KDR tyrosine kinase = biological target: T1, KDR tyrosine kinase (Homo sapiens, UniProt P35968); assay: KDR in vitro ELISA; assay type: biochemical; conditions: ATP 5 μM
T1 construct: KDR intra-cellular domain (aa789-1354); poly-His6 (N); made in house; host or cells: SF-9 insect cells, recombinant baculovirus (pVL1393)
Description: The following procedure was used to assay the inhibitory effect of compounds of this invention on KDR tyrosine kinase activity:
Dilute PGT stock (50 mg/ml, frozen) in PBS to a 250 μg/ml. […] Add 125 μl PBS to blank wells. Cover with sealing tape and incubate overnight 37° C. Wash 1× with 250 μl washing buffer and dry for about 2 hrs in 37° C. dry incubator.
Prepare inhibitor solutions at a 4× concentration in 20% DMSO in water.
Prepare enzyme solution so that desired units are in 50 μl, e.g. for KDR make to 1 ng/μl for a total of 50 ng per well in the reactions. Store on ice.
Make 4× ATP solution to 20 μM from 100 mM stock in water. Store on ice.
Add 50 μl of the enzyme solution per well.
Add 25 μl 4× ATP for inhibitor assay.
Incubate for 10 minutes at room temperature.
Stop reaction by adding 50 μl 0.05N HCl per well.
Dilute 1 mg/ml aliquot of PY20-HRP (Pierce) antibody to 50 ng/ml in 0.1% BSA in PBS by a 2 step dilution (100×, then 200×).
Add 100 μl Ab per well. Incubate 1 hr at room temp. Incubate 1 hr at 4C.
Prepare TMB substrate and add 100 μl per well.
Monitor OD at 650 nm until 0.6 is reached.
Stop with 1M Phosphoric acid. Shake on plate reader.

[1] = tested on: Human umbilical vein endothelial cells (HUVEC); assay: HUVEC mitogenesis assay; assay type: cell-based; conditions: 50 ng/ml VEGF, tritiated thymidine, read-out: VEGF-Stimulated Mitogenesis IC50
Description: Human umbilical vein endothelial cells (HUVEC) were cultured in EGM-Complete Media (endothelial growth media supplemented with 10% FBS, hydrocortisone, epidermal growth factor and bovine brain extract as per the supplier's directions). Cells, media and supplements were purchased from Clonetics (San Diego, Calif.). The HUVEC Mitogenesis Assay was used to measure inhibition of mitogenesis induced by VEGF, FGF or Complete Media. Cells were harvested by trypsinization, washed once and suspended in Complete Media (CM) at a concentration of 5,000 cells/0.15 ml. Cells were seeded into 96-well plates at 5,000 cells/well and incubated at 37 C for 24 hours. Cells were washed once with serum-free media (SFM) and incubated under serum-free conditions for 24 hours. Non-serum starved control wells were cultured with CM during this period. Test compounds were prepared as 10 mM stock solutions in DMSO, diluted in SFM and added to wells over a concentration range (0.005-50 μM final concentration). Cells were incubated for 1 hour prior to addition of 50 ng/ml VEGF or FGF (R & D Systems, Minneapolis, Minn.). Complete media stimulated wells received the test compound and stimulus simultaneously. […] Plates were harvested onto filter mats with a Tomtec Harvester and counted with a Betaplate liquid scintillation counter (Wallac).

T1 sequence (P35968 789-1354): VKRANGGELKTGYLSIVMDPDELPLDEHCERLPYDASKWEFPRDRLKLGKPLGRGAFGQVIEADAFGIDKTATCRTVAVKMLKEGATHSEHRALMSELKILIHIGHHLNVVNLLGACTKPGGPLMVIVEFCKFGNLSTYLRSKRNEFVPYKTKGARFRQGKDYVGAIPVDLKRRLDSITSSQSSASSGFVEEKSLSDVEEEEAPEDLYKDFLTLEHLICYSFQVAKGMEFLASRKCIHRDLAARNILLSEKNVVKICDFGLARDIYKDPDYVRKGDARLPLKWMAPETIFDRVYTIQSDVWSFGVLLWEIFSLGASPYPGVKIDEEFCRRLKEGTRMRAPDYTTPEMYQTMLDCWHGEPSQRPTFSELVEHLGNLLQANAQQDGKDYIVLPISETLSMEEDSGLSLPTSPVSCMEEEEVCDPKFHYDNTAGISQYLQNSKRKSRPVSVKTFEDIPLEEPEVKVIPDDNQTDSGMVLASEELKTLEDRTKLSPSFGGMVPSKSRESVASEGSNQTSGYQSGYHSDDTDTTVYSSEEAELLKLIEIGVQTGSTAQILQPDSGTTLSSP

Structure (SMILES)	melting point [°C]	further results
Cc1c2c(nn1-c1ccccc1)-c1ccccc1C2=O		IC50 (KDR tyrosine kinase): > 100 µM
C1=NC(n2nc(-c3ccccc3)cc2-c2ccccc2)NC1 (centres unmarked)		IC50 (KDR tyrosine kinase): > 100 µM
c1csc(-c2n[nH]c3c2Cc2ccccc2-3)c1		IC50 [1]: 2 µM
c1cncc(-c2n[nH]c3c2Cc2ccccc2-3)c1 [Example 1, 3-(3-Pyridyl)-1,4-dihydroindeno[1,2-c]pyrazole]	223 to 224	
c1csc(-c2n[nH]c3c2CCc2ccccc2-3)c1 [Example 3, 3-(2-Thienyl)-4,5-dihydro-1H-benz[g]indazole]	206 to 208	
COc1cccc(-c2n[nH]c3c2Cc2ccccc2-3)c1 [Example 5, 3-(3-methoxyphenyl)-1,4-dihydroindeno[1,2-c]pyrazole]	172 to 174	
COc1ccc(-c2n[nH]c3c2Cc2ccccc2-3)cc1 [Example 6, 3-(4-methoxyphenyl)-1,4-dihydroindeno[1,2-c]pyrazole]	247	

Now from value to molecule, other results behind:

melting point [°C]	Structure (SMILES)	further results
267 to 269	Cc1ccc(-c2n[nH]c3c2Cc2ccccc2-3)cc1 [Example 7, 3-(p-tolyl)-1,4-dihydroindeno[1,2-c]pyrazole]	
212 to 214	COc1ccc2c(c1)Cc1c(-c3cccs3)n[nH]c1-2 [Example 8, 6-methoxy-3-(2-thienyl)-1,4-dihydroindeno[1,2-c]pyrazole]	
195 to 197	c1coc(-c2n[nH]c3c2Cc2ccccc2-3)c1 [Example 9, 3-(2-furyl)-1,4-dihydroindeno[1,2-c]pyrazole]	
219 to 220	c1ccc2c(c1)Cc1c(-c3ccsc3)n[nH]c1-2 [Example 29, 3-(3-thienyl)-1,4-dihydroindeno[1,2-c]pyrazole]	

Source: patent US6451834B1, “Indeno[1,2-c]-, naphtho[1,2-c]- and benzo[6,7]cyclohepta[1,2-c]pyrazole derivatives” (BASF Aktiengesellschaft, priority 1997, dated 2002)
